Test results published in patent US20240025966A1, “CD47 BLOCKADE AND COMBINATION THERAPIES THEREOF FOR REDUCTION OF VASCULAR INFLAMMATION” (The Board of Trustees of the Leland Stanford Junior …, priority 2020, published 2024).

Columns and labels:
[1] = system: humans; assay: Retrospective analysis of 18F-FDG-PET/CT scans of patients treated with magrolimab; type: in vivo, human; settings: mean±SD, n=9
Procedure: Study population and design. The 13 participants enrolled in the first-in-human clinical trials of magrolimab at Stanford University were identified for inclusion in this retrospective analysis. These patients had refractory or relapsed B-cell lymphoma and had become refractory to rituximab alone or in combination with chemotherapy prior to enrollment. The protocol was reviewed and approved by the institutional review board at Stanford University (IRB #55497). Participants were treated with magrolimab in combination with background rituximab therapy. […]
^18F-FDG-PET/CT scans and analysis. […] Images were anonymized and analyzed using MIM Vista version 6.9.2 (MIM Software Inc., Cleveland, OH). The analyses were performed as previously described, and vascular uptake was quantified in the carotid arteries to avoid confounding by signal present in the mediastinal lymph nodes. Briefly, the carotid artery bifurcations on both sides were identified and arterial FDG uptake was measured starting 2 cm below the carotid artery bifurcation and continuing superiorly to 2 cm into the internal carotid artery. […] The maximum target-to-background ratio (TBR) was calculated (ratio of the maximum SUV of the artery compared to background activity in the ipsilateral internal jugular vein). […] This was calculated as an average maximum TBR derived from four contiguous axial segments. […]

[2] = system: CD47 promoter; assay: CD47 promoter luciferase reporter assay; type: cell-based, mouse; settings: smooth muscle cells, 50 ng/ml TNF-α + 10 μM atorvastatin, 24 hours
Procedure: The luciferase reporter assay was performed as previously described (Kojima et al., Nature 536, 86-90, 2016). CD47 LightSwitch Promoter Reporter GoClones (RenSP, S710450) and Cypridina TK Control constructs (pTK-Cluc, SN0322S) were obtained from SwitchGear Genomics. 45 ng of the RenSP reporter and 5 ng of the pTK-Cluc reporter construct were transfected into mouse smooth muscle cells using Lipofectamine 3000 Transfection 1 Reagent (Thermo Scientific, Catalogue #L3000-008) and Opti-MEM I Reduced Serum Medium (Thermo Scientific, Catalogue #31985062). […] The cell lysate and supernatant were harvested 24 hours after stimulation/treatment und dual luciferase activity was measured with the LightSwitch Luciferase Assay Kit (Active Motif, Catalogue #32031, NC0999256) and Pierce Cypridina Luciferase Glow Assay Kit (Thermo Scientific, P116170) using an iD3 luminometer (Molecular Devices). Relative luciferase activity (RenSP/Cypridina ratio) was quantified as the percentage change relative to the basal value obtained from control-transfected cells.

[3] = system: CD47; assay: Cd47 expression by quantitative PCR, flow cytometry and immunofluorescence; type: cell-based, mouse; settings: smooth muscle cells, 50 ng/ml TNF-α + 10 μM atorvastatin, 48 hours; compared to macrophages
Procedure: RNA was extracted from cell lysates using the miRNeasy Mini Kit (Qiagen, Catalogue #217004) according to the manufacturer's protocol or the TRIzol method (Invitrogen, Catalogue #15596026). Then, RNA was quantified with a NanoDrop One (Thermo Scientific). RNA was reverse transcribed using the High-Capacity RNA-to-cDNA Synthesis Kit (Applied 1 Biosystems, Catalogue #4387406). Quantitative PCR of the cDNA samples was performed on a ViiA7 Real-Time PCR system or a QuantStudio 5 (both Applied Biosystems). Gene expression levels were measured using TaqMan Universal Master Mix II (Applied Biosystems, Catalogue #4440047, Lot #00762728) and commercially available TaqMan primers (Applied Biosystems). Data were quantified with the 2^−ΔΔCt method and normalized to Gapdh as an internal control. […]
Cells were washed, harvested, and stained with an anti-CD47 antibody (BD Life Sciences, Catalogue #561890, FITC, MIAP301, 0.5 mg/ml) or an isotype control antibody (BD Life Sciences, Catalogue #553929, FITC, R35-95, 0.5 mg/ml) after Fc receptor blockade (BD Biosciences, Catalogue #553142, anti-mouse CD16/CD32). Expression was quantified using the LSRII (BD Life Sciences, Stanford Shared FACS Facility) and analysed by FlowJo10.7.1 (BD Life Sciences). […]

[4] = system: RAW 264.7 macrophages; assay: Apoptosis assay (Caspase-Glo 3/7); type: cell-based, mouse; settings: with or without 1 μM staurosporine, 4 hours
Procedure: The apoptosis assay was performed as previously described (Kojima et al., Nature 536, 86-90, 2016). To evaluate apoptosis, the luminometric Caspase-Glo 3/7 Assay System (Promega, Catalogue #G8091) was performed on cultured murine RAW 264.7 macrophages, according to the manufacturer's protocol. Cells were seeded in 96-well plates at the density of 10,000 cells per well, grown at 37° C. and serum-starved for 24 hours. […] For quantification, an iD3 luminometer (Molecular Devices) was used.

[5] = system: NFκB1 p50; assay: NFκB1 p50 nuclear translocation by immunofluorescence and Western blot; type: cell-based, mouse; settings: smooth muscle cells, 10 μM atorvastatin + 100 μM mevalonate
Procedure: Mouse smooth muscle cells were seeded in Millicell EZ Slides 1 (Sigma-Aldrich, Catalogue #PEZGS0416 or Catalogue #PEZGS0816). […] Following stimulation/treatment, cells were rinsed with PBS and fixed with 4% phosphate-buffered paraformaldehyde. For CD47 staining (BioXCell, MIAP410, 25 μg/ml), vector mouse-on-mouse fluorescein Immunodetection Kit (Thermo Scientific, Catalogue #NC9801950) was used according to the manufacturer's instructions. For NFκB1 p105/p50 staining, cells were blocked with 5% goat serum (Sigma-Aldrich, Catalogue #G9023) for 30 minutes, then incubated with NFκB1 p105/p50 (Cell Signaling Technology, Catalogue #13586S, D4P4D, 1:200) overnight at 4° C. […] Images were captured using a Leica DMi8 microscope (equipped with a Leica DMC4500 colour camera and a Leica K5 camera for fluorescence imaging).
Total protein was isolated from mouse smooth muscle cells using a subcellular protein fractionation kit (Thermo Scientific, Catalogue #78840) supplemented with Halt Protease and Phosphatase Inhibitor Cocktail (Thermo Scientific, Catalogue #78442). The protein concentration in each sample was measured using Pierce BCA Protein Assay Kit (Thermo Scientific, Catalogue #23225). […] Membranes were then scanned with an iBright 1500 Imaging System (Thermo Scientific) for quantitative analysis using Image J/FIJI software (Version: 2.0.0/1.52p, NIH).

magrolimab: humanized anti-CD47 antibody, the first macrophage checkpoint inhibitor
18F-FDG uptake measured by maximum SUV ([1]; most diseased segment of the index vessel (carotid) after magrolimab 20 to 45 mg/kg weekly with background rituximab, baseline 2.75±0.58, p=0.01): 2.09±0.53
18F-FDG uptake measured by maximum TBR ([1]; most diseased segment of the index vessel (carotid) after magrolimab with background rituximab, baseline 1.56±0.22, p=0.006): 1.28±0.11

CC(C)c1c(C(=O)Nc2ccccc2)c(-c2ccccc2)c(-c2ccc(F)cc2)n1CC[C@@H](O)C[C@@H](O)CC(=O)O [atorvastatin]
tumor necrosis factor-α induced CD47 promoter activity [2]: inhibit
CD47 RNA level [3]: larger reduction
CD47 protein level [3]: larger reduction
rate of programmed cell death (apoptosis) [4]: not found

CC(O)(CCOP(=O)(O)O)CC(=O)O (racemic) [DL-mevalonic acid 5-phosphate]
effect of atorvastatin on NFκB1 p50 nuclear translocation with the addition of mevalonate [5]: eliminated
